{"source": "patent US8557793B2", "about": "“Theanine derivative, preparation method thereof, and use thereof for alleviating acne” (Amorepacific Corporation, priority 2010, dated 2013)", "key": {"[1]": {"system": "S. Epidermidis", "assay": "Selective anti-bacterial test, count of germs after shaking culture with sample", "type": "cell-based", "conditions": "for S. Epidermidis (%) count of germs: count of germs in control group without sample defined as 100%, shaking culture at 32° C. for one day; for change in the count of S. Epidermidis (in words): summary of Table 1", "description": "(§1) Each sample was added to an aqueous solution of 1% peptone and sterilized. 20 μl/ml of a test germ solution was injected into the sample-containing sterilized aqueous solution of peptone and then subjected to shaking culture at 32° C. for one day. The test germs selected were P. acnes known as present in the skin and harmful to the skin and S. Epidermidis known as relatively harmless to the skin. The solution after the shaking culture was diluted to 1/100 with normal diluting water. 0.1 ml of the diluted solution was placed on a Petri dish and then […]. To the diluted solution was poured TS agar cooled down to about 50° C. The Petri dish hardened with the TS agar was subjected to anaerobic culture at 35° C. for one day to measure the count of the germs. The P. acnes group was subjected to anaerobic culture at 35° C. for one day and then diluted to 1/100 with normal diluting water. 0.1 ml of the diluted solution was placed on a Petri dish, hardened with BHI agar, and subjected to anaerobic culture at 35° C. for 3 days to count the germs. As comparative groups, theanine and maltose were used for the testing. The count of germs in the control group without containing the sample was defined as 100%."}, "[2]": {"system": "P. acnes", "assay": "Selective anti-bacterial test, count of germs after shaking culture with sample", "type": "cell-based, Propionibacterium acnes", "conditions": "for P. acnes (%) count of germs: count of germs in control group without sample defined as 100%, shaking culture at 32° C. for one day; for change in the count of P. acnes (in words): summary of Table 1", "description": "as §1"}, "[3]": {"assay": "Primary skin irritation test (closed patch test)", "type": "in vivo, human", "conditions": "for Extent of Skin Irritation: average score on scale 0 (None) to 4 (Extreme), aqueous solution, closed patch on lower arm, 20 subjects, after one day; for safety to the skin (in words): summary of Table 3", "text": "An aqueous solution of each theanine derivative of examples 1, 2 and 3 was applied on the lower part of the arm of 20 healthy male and female subjects according to the closed patch test method. The arm was covered with a plastic cap to block external stimuli. All numeral designations in Table 3 are averages of the irritations calculated according to the evaluation method of Table 2. [table]"}}}
{"smiles": "CCNC(=O)CC[C@H](N)C(=O)O", "note": "[Theanine, theanine]", "values": [{"measurement": "S. Epidermidis (%) count of germs", "setting": "[1]", "value": 98, "unit": "%"}, {"measurement": "P. acnes (%) count of germs", "setting": "[2]", "value": 50, "unit": "%"}]}
{"smiles": "OC[C@H]1O[C@H](O[C@H]2[C@H](O)[C@@H](O)C(O)O[C@@H]2CO)[C@H](O)[C@@H](O)[C@@H]1O", "note": "(mixture of isomers) [Maltose, maltose, reference compound]", "values": [{"measurement": "S. Epidermidis (%) count of germs", "setting": "[1]", "value": 89, "unit": "%"}, {"measurement": "P. acnes (%) count of germs", "setting": "[2]", "value": 110, "unit": "%"}]}
{"smiles": "CCNC(=O)CC[C@H](NCC1(O)OC[C@@H](O)C(O[C@H]2O[C@H](CO)[C@@H](O)[C@H](O)[C@H]2O)[C@@H]1O)C(=O)OC", "note": "(stereo partly shown) [Example 2, Maltulosyl Theanine Methyl Ester]", "values": [{"measurement": "S. Epidermidis (%) count of germs", "setting": "[1]", "value": 93, "unit": "%"}, {"measurement": "change in the count of S. Epidermidis (in words)", "setting": "[1]", "value": "no significant change"}, {"measurement": "P. acnes (%) count of germs", "setting": "[2]", "value": 27, "unit": "%"}, {"measurement": "change in the count of P. acnes (in words)", "setting": "[2]", "value": "reduced count"}, {"measurement": "Extent of Skin Irritation", "setting": "[3]", "value": 0.2}, {"measurement": "safety to the skin (in words)", "setting": "[3]", "value": "safe to the skin"}]}
{"smiles": "CCNC(=O)CC[C@H](NCC1(O)OC[C@@H](O)C(O[C@H]2O[C@H](CO)[C@@H](O)[C@H](O)[C@H]2O)[C@@H]1O)C(=O)O", "note": "(stereo partly shown) [Example 1, Maltulosyl Theanine]", "values": [{"measurement": "S. Epidermidis (%) count of germs", "setting": "[1]", "value": 83, "unit": "%"}, {"measurement": "change in the count of S. Epidermidis (in words)", "setting": "[1]", "value": "no significant change"}, {"measurement": "P. acnes (%) count of germs", "setting": "[2]", "value": 9, "unit": "%"}, {"measurement": "change in the count of P. acnes (in words)", "setting": "[2]", "value": "reduced count"}, {"measurement": "Extent of Skin Irritation", "setting": "[3]", "value": 0.1}, {"measurement": "safety to the skin (in words)", "setting": "[3]", "value": "safe to the skin"}]}
{"smiles": "CCN(CC)C(=O)CC[C@H](NCC1(O)OC[C@@H](O)C(O[C@H]2O[C@H](CO)[C@@H](O)[C@H](O)[C@H]2O)[C@@H]1O)C(=O)O", "note": "(stereo partly shown) [Example 3, Maltulosyl N-Ethyl Theanine]", "values": [{"measurement": "S. Epidermidis (%) count of germs", "setting": "[1]", "value": 86, "unit": "%"}, {"measurement": "change in the count of S. Epidermidis (in words)", "setting": "[1]", "value": "no significant change"}, {"measurement": "P. acnes (%) count of germs", "setting": "[2]", "value": 15, "unit": "%"}, {"measurement": "change in the count of P. acnes (in words)", "setting": "[2]", "value": "reduced count"}, {"measurement": "Extent of Skin Irritation", "setting": "[3]", "value": 0.1}, {"measurement": "safety to the skin (in words)", "setting": "[3]", "value": "safe to the skin"}]}
